Experimental data reported in PMC2364952, “The Anti-Inflammatory Activity of Boron Derivatives in Rodents” (Metal-Based Drugs, 1995).

What was measured:
[1] = system: carrageenan-induced inflammation of hind foot; assay: Carrageenan-induced foot edema, mice; format: in vivo, CF1 male mice; conditions: for reduction of induced edema / anti-inflammatory activity in mouse edema screen: mice; for reduction of induced edema: 8 mg/kg x 2, I.P., carrageenan; for inhibition of induced inflammation: standards at their therapeutic dose (indomethacin 8 mg/kg x 2, pentoxifylline and phenylbutazone 50 mg/kg x 2); for anti-inflammatory activity in mouse edema screen: 8 mg/kg x 2
[2] = system: acetic acid induced stretch reflex; assay: Local analgesic screen (acetic acid writhing); format: in vivo, CF1 mice; conditions: for Mice Writhing Reflex: 8 mg/kg I.P., Table 2; for reduction of the reflex action: mice, acetic acid induced local pain, 8 mg/kg
[3] = system: adjuvant (M. butyricum) arthritis; assay: Chronic adjuvant arthritic screen; format: in vivo; conditions: rats; for Rat Chronic Arthritis: 8 mg/kg/day I.P., Day 3 to Day 21, Table 2
acid phosphatase = assay: Acid phosphatase activity, mouse macrophages; format: cell-based, mouse (J774 macrophages); conditions: Table 3; read-out: IC50 Acid Phosphatase, Mouse Macrophage
cathepsin = assay: Cathepsin activity, mouse macrophages; format: cell-based, mouse (J774 macrophages); conditions: Table 3; read-out: IC50 Cathepsin, Mouse Macrophage
trypsin = assay: Trypsin proteolytic activity, mouse macrophages; format: cell-based, mouse (J774 macrophages); conditions: Table 5; read-out: IC50 Trypsin, Mouse Macrophage
elastase = assay: Elastase activity, mouse macrophages; format: cell-based, mouse (J774 macrophages); conditions: Table 5; read-out: IC50 Elastase, Mouse Macrophage
[4] = target: prostaglandin cyclooxygenase; assay: Prostaglandin cyclooxygenase activity, macrophages; format: cell-based, mouse (J774 macrophages); conditions: Table 7
[5] = system: tail flick response to heat; assay: Hot plate tail flick screen; format: in vivo, CF1 male mice; conditions: for Mice Tail Flick: 8 mg/kg I.P., hot plate, Table 2; for tail flick assay time / blocking central pain compared with morphine: mice; for tail flick assay time: 8 mg/kg; for blocking central pain compared with morphine: tail flick
[6] = system: carrageenan-induced inflammation of paw; assay: Carrageenan-induced paw edema, rats; format: in vivo, Sprague Dawley male rats; conditions: for Rat Inflammatory: 8 mg/kg x 2, I.P., Table 2; for reduction in induced edema in rats: 8 mg/kg x 2;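 for Rat Inflammatory: paw weight increase as percent of control rats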
aryl sulphatase = assay: Aryl sulfatase activity, mouse macrophages; format: cell-based, mouse (J774 macrophages); conditions: Table 3; read-out: IC50 Aryl Sulfatase, Mouse Macrophage
[7] = system: carrageenan-induced pleural fluid; assay: Anti-pleurisy screen; format: in vivo, Sprague Dawley male rats; conditions: for pleurisy edema in rats: 8 mg/kg; for Rat Pleurisy: rats, 8 mg/kg I.P., 1 h before and 3 h after carrageenan, Table 2;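 for Rat Pleurisy: Pleural fluid volume as percent of control rats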

Structure (SMILES)	reduction of induced edema [1]	Mice Writhing Reflex [2]	reduction of the reflex action [2]	IC50 (acid phosphatase) [µM]	IC50 (cathepsin) [µM]	IC50 (trypsin) [µM]	IC50 (elastase) [µM]	Rat Inflammatory [6]	further results
CC[N+]([BH2-]C#N)(CC)CP(=O)(OC)OC [Compound 62]	at least 40%								
CC(=O)CCCCn1c(=O)c2c(ncn2C)n(C)c1=O [pentoxifylline, reference compound]									inhibition of induced inflammation [1]: 30%
C[N+](C)([BH2-]C(=O)O)CC[N+](C)(C)[BH2-]C(=O)O [Compound 7]		55 % of control	at least 45%	3.32	8.37	2.33	2.76		reduction of pannus ([3]; 8 mg/kg/day): greater than 75%; Rat Chronic Arthritis [3]: 24 % of control; IC50 [4]: 1.85 µM
CCCCCCCCCCCCCCCCCC[N+](C)(C)[BH2-]C#N [Compound 36]		61 % of control	at least 45%	2.68	3.69	4.34	10.3		anti-inflammatory activity in mouse edema screen [1]: good activity; IC50 [4]: 2.23 µM
C[NH+](C)[BH2-]C(=O)O [Compound 3]				4.75	6.39	3.1	2.67		Mice Tail Flick [5]: 156 % of control; tail flick assay time [5]: increased; IC50 [4]: 2.91 µM
[BH3-][NH+]1CCOCC1 [Compound 78]	45%	15 % of control	80%	3.18	0.76	2.39	5.94	83 % of control	activity in chronic arthritis screen ([3]; 8 mg/kg/day): significantly active; Rat Chronic Arthritis [3]: 33 % of control; IC50 [4]: 1.47 µM
CCNC(=O)[BH2-][N+](C)(C)C [Compound 25]		89 % of control							
C[N+]1([BH2-]C(=O)O)CCOCC1 [Compound 84]	at least 30%								
N#C[BH2-][P+](c1ccccc1)(c1ccccc1)c1ccccc1 [Compound 48]		50 % of control	at least 45%					78 % of control	Mice Tail Flick [5]: 134 % of control
O=C(O)[BH2-][n+]1ccccc1 [Compound 11]								77 % of control	
CCNC(=O)[BH2-][NH2+]C [Compound 23]		27 % of control	at least 45%	1.12	3.95	2.03	3.29	41 % of control	reduction in induced edema in rats [6]: at least 40%; Mice Tail Flick [5]: 81 % of control; IC50 (aryl sulphatase): 9.27 µM; IC50 [4]: 5.19 µM
CCCCC1C(=O)N(c2ccccc2)N(c2ccccc2)C1=O [Phenylbutazone, phenylbutazone, reference compound]								47 % of control	inhibition of induced inflammation [1]: 47%
C[NH2+][BH2-]C(=O)NO.[H+].c1ccc([B-](c2ccccc2)(c2ccccc2)c2ccccc2)cc1 [Compound 75]	at least 40%	34 % of control	at least 45%	6.61	4.58	2.51	7.59		Mice Tail Flick [5]: 279 % of control; tail flick assay time [5]: increased; blocking central pain compared with morphine [5]: as effective as morphine; IC50 (aryl sulphatase): 1.5 µM; IC50 [4]: 6.61 µM
C[N+](C)(C)[BH2-]C(=O)NO.[H+].c1ccc([B-](c2ccccc2)(c2ccccc2)c2ccccc2)cc1 [Compound 76]	at least 40%	45 % of control	at least 45%	3.96	1.69	2.06	4.83	60 % of control	Mice Tail Flick [5]: 258 % of control; tail flick assay time [5]: increased; blocking central pain compared with morphine [5]: as effective as morphine; pleurisy edema in rats [7]: reduced significantly; Rat Pleurisy [7]: 50 % of control; IC50 (aryl sulphatase): 1.37 µM; IC50 [4]: 1.61 µM
CC[NH2+][BH2-]C(=O)O [Compound 5]		1 % of control	80%					59 % of control	reduction in induced edema in rats [6]: at least 40%; Mice Tail Flick [5]: 196 % of control; tail flick assay time [5]: increased
COc1ccc2c(c1)c(CC(=O)O)c(C)n2C(=O)c1ccc(Cl)cc1 [Indomethacin, indomethacin, reference compound]		43 % of control						78 % of control	inhibition of induced inflammation [1]: 26%; Rat Pleurisy [7]: 12 % of control; Rat Chronic Arthritis [3]: 55 % of control
CN1CC[C@]23c4c5ccc(O)c4O[C@H]2[C@@H](O)C=C[C@H]3[C@H]1C5 [Morphine, morphine, reference compound]									Mice Tail Flick [5]: 213 % of control
CCNC(=O)[BH2-][N+](C)(C)CC[N+](C)(C)[BH2-]C(=O)NCC [Compound 30]		34 % of control							

Structure (SMILES)	reduction of induced edema [1]	Mice Writhing Reflex [2]	reduction of the reflex action [2]	IC50 (acid phosphatase) [µM]	IC50 (cathepsin) [µM]	IC50 (trypsin) [µM]	IC50 (elastase) [µM]	Rat Inflammatory [6]	further results
CCCC[N+](CCCC)(CCCC)CCCC.CCNC(=O)[BH2-][P+]([O-])(OCC)OCC [Compound 57]				4.43	6.49	3.76	9.01		IC50 [4]: 3.09 µM
CCNC(=O)[BH2-][NH+](C)CP(=O)(OC(C)C)OC(C)C (stereo not drawn) [Compound 73]	at least 40%								
CCOP(=O)(C[N+](C)(C)[BH2-]C#N)OCC [Compound 66]	at least 40%								
CCOC(=O)[BH2-][N+](C)(C)CP(=O)(OCC)OCC [Compound 68]	at least 40%								
CCNC(=O)[BH2-][NH+](C)CP(=O)(OCC)OCC (stereo not drawn) [Compound 69]	at least 40%								
CC(C)OP(=O)(C[NH+](C)[BH2-]C(=O)O)OC(C)C (stereo not drawn) [Compound 71]	at least 40%								
CCCCNC(=O)[BH2-][N+](C)(C)C [Compound 27]			at least 45%						
CCCCCCCCCCCCCCCCCC[N+](C)(C)[BH2-]C(=O)O [Compound 9]		14 % of control	80%	5.34	5.09	2.07	6.29	72 % of control	Mice Tail Flick [5]: 231 % of control; tail flick assay time [5]: increased; blocking central pain compared with morphine [5]: as effective as morphine; pleurisy edema in rats [7]: reduced significantly; Rat Pleurisy [7]: 37 % of control; IC50 [4]: 2.51 µM
COC(=O)[BH2-][N+](C)(C)C [Compound 16]		2 % of control	80%	3.55	8.28	3.23	8.76	71 % of control	anti-inflammatory activity in mouse edema screen [1]: less active; Mice Tail Flick [5]: 180 % of control; tail flick assay time [5]: increased; pleurisy edema in rats [7]: reduced significantly; Rat Pleurisy [7]: 45 % of control; IC50 (aryl sulphatase): 17.6 µM; IC50 [4]: 2.41 µM
COC(=O)[BH2-][NH+]1CCC(c2ccccc2)CC1 (stereo not drawn) [Compound 87]	at least 30%	89 % of control		2.68	3.99	2.85	6.98		
Cc1[nH]cc[n+]1[BH2-]C#N [Compound 91]	at least 30%								
CCCCCCCCCCCCCCCC[N+](C)(C)[BH2-]C(=O)OCC [Compound 19]									anti-inflammatory activity in mouse edema screen [1]: less active
C[N+](C)(C)[BH2-]C(=O)O [Compound 4]		2 % of control	80%					55 % of control	reduction in induced edema in rats [6]: at least 40%
CCC[NH+]([BH2-]C(=O)O)CCC [Compound 6]		19 % of control						55 % of control	reduction in induced edema in rats [6]: at least 40%
CC(C)OP(=O)(C[NH+](C)[BH2-]C#N)OC(C)C (stereo not drawn) [Compound 67]	at least 40%								
CCNC(=O)[BH2-][P+]([O-])(OCC)OCC.[Na+] [Compound 54]	at least 40%								
CC[N+]([BH2-]C#N)(CC)CP(=O)(OC(C)C)OC(C)C [Compound 64]	at least 40%								
